Structures can show the parent of a compound that is named as a salt.
Columns and labels:
[1] = biological target: T1, CYP2C9 (Homo sapiens, UniProt P11712); assay: Cytochrome P450 isoenzyme inhibition, CYP2C9; format: in vitro ADME; conditions: human liver microsomes; read-out: CYP enzyme inhibition (IC50) 2C9
T1 construct: tissue Corning Co., Ltd; host or cells: human liver microsomes
Text: Experimental objective: To determine the inhibitory effect of the test compound on the activity of human liver microsomal cytochrome P450 isoenzymes (CYP1A2, CYP2C9, CYP2C19, CYP2D6 and CYP3A4; Corning Co., Ltd.). […]

[2] = tested on: P-gp (human MDR1); assay: MDR1-MDCK two-way permeability assay; format: in vitro ADME, canine; conditions: dog
Text: In this study, the MDR1-MDCKII cell line authorized by the Piet Borst Laboratory of the Netherlands Cancer Institute was used as the in vitro model. It is a Madin-Darby canine kidney cell transfected with human multiple drug resistance gene (MDR1). The cells can stably express the efflux transporter P-gp, so it is suitable for screening P-gp substrates or inhibitors and predicting the permeability of the compounds through barriers with high efflux effects in the duodenum, blood-brain barrier, […] and kidney units, etc. This study was intended to use MDR1-MDCK II cells for investigating the two-way permeability of the test compounds through the MDR1-MDCK II cell model.
Procedures: The standard conditions are as follows: • Test concentration: 2 μM (DMSO≤1%); • Replicate: n=2; • Direction: Two-way transport, including two directions: A→B and B→A; • Incubation time: single time point, 2.5 hours; • Transport buffer: HBSS buffer containing 10 mM Hepes, pH 7.4; Incubation condition: 37° C., 5% CO2.
After the incubation, sample solutions at the dosing end and the receiving end were collected and mixed with the cold acetonitrile solution containing the internal standard immediately. LC/MS/MS method was used to analyze the concentration of the test compounds in all samples (including the initial dosing solution, the dosing end samples and the receiving end samples). The apparent permeability coefficient, efflux ratio and other parameters were calculated.

T1 sequence (P11712 whole entry): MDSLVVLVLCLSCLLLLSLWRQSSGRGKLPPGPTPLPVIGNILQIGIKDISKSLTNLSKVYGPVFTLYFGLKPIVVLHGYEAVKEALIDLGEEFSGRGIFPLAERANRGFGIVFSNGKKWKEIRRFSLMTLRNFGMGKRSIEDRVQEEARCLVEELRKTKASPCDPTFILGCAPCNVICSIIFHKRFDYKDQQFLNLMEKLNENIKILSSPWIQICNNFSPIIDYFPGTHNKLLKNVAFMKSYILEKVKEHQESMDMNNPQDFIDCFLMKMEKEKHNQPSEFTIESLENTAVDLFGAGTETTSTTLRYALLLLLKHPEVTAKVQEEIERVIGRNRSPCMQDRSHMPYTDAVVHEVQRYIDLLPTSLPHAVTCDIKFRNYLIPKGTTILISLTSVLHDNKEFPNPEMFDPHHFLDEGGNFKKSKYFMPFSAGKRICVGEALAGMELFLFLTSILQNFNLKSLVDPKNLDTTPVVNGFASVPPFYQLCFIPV

Compound `CC/C(=C(/c1ccc(OCCNC/C=C/C(=O)N(C)C)nc1)c1[nH]c2ccccc2c1Cl)c1ccccc1` [Compound 3 monohydrochloride] has an IC50 [1] of 8.4 µM, a Papp A→B at 2.5 h, 2 μM ([2]; MDCK-MDR1, A-B, pH 7.4) of 0.44 ×10⁻⁶ cm/s and a Papp B→A at 2.5 h, 2 μM ([2]; MDCK-MDR1, B-A, pH 7.4) of 1.93 ×10⁻⁶ cm/s. For the same compound, the efflux ratio at 2.5 h, 2 μM ([2]; MDCK-MDR1, pH 7.4, B-A/A-B) was 4.39.
